Values of other authors, collected in patent US20090196889A1, “CONTROLLED ABSORPTION OF STATINS IN THE INTESTINE” (DEXCEL PHARMA TECHNOLOGIES LTD., priority 2004, published 2009).

Key:
HMG-CoA reductase = molecular target: T1, HMG-CoA reductase (Homo sapiens, UniProt P04035); settings: relative to the beta-hydroxy acid form considered as the drug
T1 sequence (P04035 1-888): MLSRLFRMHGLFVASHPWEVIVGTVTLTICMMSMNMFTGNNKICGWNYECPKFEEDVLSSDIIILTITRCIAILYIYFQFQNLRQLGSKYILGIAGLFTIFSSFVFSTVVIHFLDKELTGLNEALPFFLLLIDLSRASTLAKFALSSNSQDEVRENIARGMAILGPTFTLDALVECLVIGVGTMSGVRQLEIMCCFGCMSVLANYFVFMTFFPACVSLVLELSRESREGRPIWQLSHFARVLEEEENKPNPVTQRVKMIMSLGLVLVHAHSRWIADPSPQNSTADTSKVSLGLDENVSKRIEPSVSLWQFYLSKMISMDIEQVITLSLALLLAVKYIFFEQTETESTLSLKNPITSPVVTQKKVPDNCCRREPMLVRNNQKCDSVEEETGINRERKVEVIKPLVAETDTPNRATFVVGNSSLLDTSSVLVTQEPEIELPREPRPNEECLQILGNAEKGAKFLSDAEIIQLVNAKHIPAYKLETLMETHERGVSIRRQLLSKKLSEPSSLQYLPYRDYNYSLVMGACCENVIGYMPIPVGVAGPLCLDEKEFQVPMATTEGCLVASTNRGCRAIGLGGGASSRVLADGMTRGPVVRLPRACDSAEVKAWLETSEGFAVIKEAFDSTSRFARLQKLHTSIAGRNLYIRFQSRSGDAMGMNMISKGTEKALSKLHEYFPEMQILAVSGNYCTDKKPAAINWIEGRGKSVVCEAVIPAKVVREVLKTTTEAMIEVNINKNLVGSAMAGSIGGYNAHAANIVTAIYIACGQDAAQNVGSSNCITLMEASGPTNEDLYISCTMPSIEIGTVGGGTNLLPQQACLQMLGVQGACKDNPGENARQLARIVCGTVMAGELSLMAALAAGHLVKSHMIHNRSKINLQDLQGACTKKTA

[1] = tested on: plasma proteins, primarily albumin; settings: simvastatin and its active acid forms

Compound	HMG-CoA reductase activity retained (HMG-CoA reductase)	bound to plasma proteins, primarily to albumin [1]
CCC(C)(C)C(=O)OC1CC(C)(O)C=C2C=CC(C)C(CCC3CC(O)CC(=O)O3)C21 (stereo not drawn) [6-beta-hydroxy simvastatin]	~50%	
CCC(C)(C)C(=O)OC1CC(CO)C=C2C=CC(C)C(CCC3CC(O)CC(=O)O3)C21 (stereo not drawn) [6-beta-hydroxymethyl]	approximately 40%	
CCC(C)(C)C(=O)O[C@H]1C[C@@H](C)C=C2C=C[C@H](C)[C@H](CC[C@@H]3C[C@@H](O)CC(=O)O3)[C@H]21 [simvastatin]		more than 95%
